Publication PMC9640980, “Pharmacological evaluation of enantiomerically separated positive allosteric modulators of cannabinoid 1 receptor, GAT591 and GAT593” (Frontiers in Pharmacology, 2022)

What was measured:
male C57BL/6 mice [1] = system: male C57BL/6 mice; parameters: method as in Garai et al., 2020; settings: 0.1, 1, 3, or 10 mg/kg (i.p.) compared to vehicle; ref Garai et al., 2020; cited from earlier work
male C57BL/6 mice [2] = system: male C57BL/6 mice; parameters: method as in Garai et al., 2020; settings: 0.1, 1, 3, or 10 mg/kg (i.p.) compared to vehicle; ref Garai et al., 2020; cited from earlier work; remark: listed apart in the source
male C57BL/6 mice [3] = system: male C57BL/6 mice; parameters: method as in Garai et al., 2020; settings: significant relative to vehicle at 3 and 10 mg/kg; ref Garai et al., 2020; cited from earlier work
[4] = parameters: method as in Garai et al., 2020; settings: racemic mixtures; ref Garai et al., 2020; cited from earlier work
human CB1R (hCB1R) [5] = target: T1, human CB1R (hCB1R) (Homo sapiens, UniProt P21554); assay: HitHunter cAMP inhibition assay in hCB1R CHO-K1 cells (10 µM forskolin); format: cell-based; settings: value (95% CI)
T1 construct: host or cells: CHO-K1 (PathHunter βarrestin2 line)
T1 sequence (P21554 whole entry): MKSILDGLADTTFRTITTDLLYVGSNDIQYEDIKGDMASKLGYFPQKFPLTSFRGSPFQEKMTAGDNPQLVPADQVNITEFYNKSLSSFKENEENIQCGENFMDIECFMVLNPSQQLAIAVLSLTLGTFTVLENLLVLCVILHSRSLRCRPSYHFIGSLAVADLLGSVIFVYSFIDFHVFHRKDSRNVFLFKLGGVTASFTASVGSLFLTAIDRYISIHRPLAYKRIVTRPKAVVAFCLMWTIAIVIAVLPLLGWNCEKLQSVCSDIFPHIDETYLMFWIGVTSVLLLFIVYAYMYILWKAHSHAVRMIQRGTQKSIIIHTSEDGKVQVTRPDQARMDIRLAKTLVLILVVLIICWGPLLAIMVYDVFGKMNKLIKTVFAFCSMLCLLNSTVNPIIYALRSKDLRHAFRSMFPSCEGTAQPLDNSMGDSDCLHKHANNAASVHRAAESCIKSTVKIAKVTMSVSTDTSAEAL
Procedure: (§1) HitHunter (cAMP) and PathHunter (βarrestin2) Chinese hamster ovary (CHO)-K1 cells stably-expressing human CB1R (hCB1R) from DiscoveRx (Eurofins, Freemont, CA) were maintained at 37°C, 5% CO2 in DMEM/F-12 containing 10% fetal bovine serum (FBS) and 5 U × 10^4 U penicillin/streptomycin (ThermoFisher, Mississauga, ON). In addition, 800 μg/ml geneticin was used for CHO-K1 hCB1R HitHunter cAMP cells and 800 μg/ml geneticin and 300 μg/ml hygromycin B was used for CHO-K1 hCB1R PathHunter βarrestin2 cells.
cAMP inhibition was performed in the presence of 10 µM forskolin (FSK) using the DiscoveRx HitHunter assay in hCB1R CHO-K1 cells. Cells (16,000 cells/well in 96 well plates) were incubated overnight in Opti-MEM (Invitrogen) containing 1% FBS at 37°C and 5% CO2. Opti-MEM media was removed and replaced with cell assay buffer (DiscoveRx) and then cells were simultaneously treated with 10 µM FSK and experimental compounds (0.10 nM–10 µM) for 90 min cAMP antibody solution and working detection solutions were added according to the manufacturer’s protocol (DiscoveRx), and cells were incubated for 60 min at room temperature. cAMP solution A was added according to the manufacturer’s protocol (DiscoveRx) and cells were incubated for an additional 60 min at room temperature before chemiluminescence was measured on a Cytation5 plate reader (top read, gain 200, integration time 10 s).
(§2) Data related to EC50 and E max in Figures 3, 4 were obtained with nonlinear regression models (3-parameter model, GraphPad Prism 9.0, San Diego, CA). […] Significance was determined by one- or two-way ANOVA followed by Tukey’s or Bonferroni’s post-hoc test as indicated. p < 0.05 was considered significant and p values were only employed where ANOVA was used. Data related to Figure 5 was analyzed in GraphPad Prism 9.0 was used to analyze in vivo data and p < 0.05 was considered to be statistically significant. Data are expressed as mean ± SEM. Group sizes for all experiments are described in figure legends.

human CB1R (hCB1R) [6] = target: T1, human CB1R (hCB1R); assay: PathHunter βarrestin2 recruitment assay in hCB1R CHO-K1 cells; format: cell-based; settings: for activity in the βarrestin2 recruitment assay as PAM, in words: as PAMs, 100 nM CP55,940; for βarrestin2 recruitment to hCB1R, in words: as agonist (and PAM where stated), Figures 3B,D; for EC50: compound alone, hCB1R CHO-K1, 90 min, value (95% CI), Figure 3B, read-out: EC50 (nM) 95% C.I., βarrestin2 recruitment as agonist
Procedure: as §1
βarrestin2 recruitment was determined using the hCB1R CHO-K1 cell PathHunter assay (DiscoveRx). Cells (16,000 cells/well in 96 well plates) were incubated overnight in Opti-MEM (Invitrogen) containing 1% FBS at 37°C and 5% CO2. Cells were then simultaneously treated with experimental compounds (0.10 nM–10 µM) for 90 min. Detection solution was added to cells according to the manufacturer’s protocol (DiscoveRx), and cells were incubated for 60 min at room temperature. Chemiluminescence was measured on a Cytation5 plate reader (top read, gain 200, integration time 10 s).
as §2

hCB1R [7] = target: T2, hCB1R (Homo sapiens, UniProt P21554); assay: [3H]CP55,940 radioligand binding to hCB1R CHO-K1 cell membranes; settings: for Emax ± S.E.M., [3H]CP55,940 bound: 1 nM [3H]CP55,940, Figure 4A
T2 construct: expressed in transfected cells; host or cells: CHO-K1 cell membranes
T2 sequence (P21554 whole entry): as above
Procedure: The assay began with the addition of transfected hCB1R CHO-K1 cell membranes (25 µg protein per well). The assays were left to equilibrate at room temperature for 2 h before vacuum filtration using a Millipore Sigma 12-well sampling manifold and filter paper that had been soaked in wash buffer. Each reaction well was washed 3 times with a 2 ml aliquot of Tris-binding buffer. The filters were removed then submerged in 5 ml of scintillation fluid (Ultima Gold F, PerkinElmer, Buckinghamshire, United Kingdom). Radioactivity was quantified by liquid scintillation spectrometry.
as §2

hCB1R [8] = target: T2, hCB1R; assay: [35S]GTPγS G protein coupling assay, membranes of CHO-K1 cells overexpressing hCB1R; format: biochemical; settings: absence of orthosteric agonist, Figure 4B; for EC50: value (95% CI), read-out: EC50 (nM) 95% C.I., [35S]GTPγS binding, compound alone
Procedure: This assay was conducted as described in previous reports ([Garai et al., 2020]). To summarize, the assay was completed in the presence of [35S]GTPγS (0.1 nM), GDP (30 µM), GTPγS (30 µM) using membranes derived from CHO-K1 cells (1 mg/ml) overexpressing hCB1R. Assay buffer consisted of 50 mM Tris, 10 mM MgCl2, 100 mM NaCl, 0.2 mM EDTA and 1 mM dithiothreitol (DTT) at pH 7.4. Membranes were incubated at 30°C for 90 min in a total volume of […]. Reactions were ended by the addition of ice-cold wash buffer (50 mM Tris and 1 mg/ml BSA, pH 7.4) followed by rapid filtration under vacuum through pre-soaked Whatman GF/B glass-fibre filters in a 24-well sampling manifold (Brandel Cell Harvester; Brandel Inc., Gaithersburg, MD, United States). Reaction wells were washed six times with a 1.2 ml aliquots of Tris-binding buffer. Filters were subsequently oven-dried for 60 min and placed in 3 ml of scintillation fluid (Ultima Gold XR, PerkinElmer). Bound radioactivity was determined by liquid scintillation counting. Basal [35S]GTPγS binding was determined in the presence of […] GDP without any compounds present. Non-specific binding was determined in the presence of […] GTPγS.
as §2

male C57BL/6 mice [9] = assay: Triad assessment in mice: catalepsy (bar holding assay); format: in vivo, mouse; settings: for catalepsy, compound alone: 0.1, 1, 3, or 10 mg/kg i.p. compared to vehicle, male C57BL/6 mice, Figure 5A; for cataleptic effect, co-administered with THC: 3 and 10 mg/kg i.p. + sub-threshold 1 mg/kg THC, Figure 5D
Procedure: (§3) Male C57BL/6 mice (Charles River, Senneville, QC) between 4 and 7 months of age were used for these studies. Animals were group housed at the Laboratory Animal Services Unit (LASU) at the University of Saskatchewan (3-5 animals/cage) with a standard 12:12 light-dark cycle, ad libitum access to food and water, and environmental enrichment. Compounds administered intraperitoneally (i.p.) were prepared in vehicle [ethanol and cremophor in saline (1:1:8)]. Catalepsy was assessed in the bar holding assay 5 min after drug administration. Mice were placed so that their forepaws clasped a 0.7 cm ring clamp positioned 4.5 cm above the surface of the testing space ([Zagzoog et al., 2021]). The length of time the ring was held was recorded in seconds. The trial ended if the mouse turned its head or body or made 3 consecutive escape attempts to a maximum of 60 s. Body temperature was measured by rectal thermometer 15 min after drug administration. Anti-nociceptive effects were measured in the warm water (52 ± 2°C) tail-flick test 20 min after drug administration. Response in this case was defined by the removal of the tail from the warm water, with a maximal response time of 20 s. Catalepsy and tail flick data are presented as percent maximum possible effect (MPE). Compounds were administered at the doses indicated. Experimenters were blinded to treatment for all behavioral assessments and analyses. Animals were purchased, rather than bred, to reduce animal numbers. In all cases, experiments were performed with the approval of the University Animal Care Committee (UACC) at the University of Saskatchewan and are in keeping with the guidelines of the Canadian Council on Animal Care (CCAC) and the ARRIVE guidelines ([Kilkenny et al., 2010]).

male C57BL/6 mice [10] = assay: Triad assessment in mice: body temperature (rectal thermometer); format: in vivo, mouse; settings: for hypothermia, compound alone: 0.1, 1, 3, or 10 mg/kg i.p. compared to vehicle, male C57BL/6 mice, Figure 5B; for hypothermic effect, co-administered with THC: 3 and 10 mg/kg i.p. + sub-threshold 1 mg/kg THC, Figure 5E
Procedure: as §3

male C57BL/6 mice [11] = assay: Triad assessment in mice: nociception (warm water tail-flick test); format: in vivo, mouse; settings: for anti-nociceptive effects (tail flick), compound alone: 0.1, 1, 3, or 10 mg/kg i.p. compared to vehicle, male C57BL/6 mice, Figure 5C; for anti-nociceptive effect (tail flick), co-administered with THC: 3 and 10 mg/kg i.p. + sub-threshold 1 mg/kg THC, Figure 5F
Procedure: as §3

[12] = 100 nM CP55,940 + compound, Figure 3C, read-out: EC50 (nM) 95% C.I., cAMP inhibition as PAM
[13] = compound alone, hCB1R CHO-K1, 90 min, Figure 3A, read-out: EC50 (nM) 95% C.I., cAMP inhibition as agonist

| Compound | catalepsy, racemate alone (male C57BL/6 mice [1]) | hypothermia, racemate alone (male C57BL/6 mice [2]) | anti-nociceptive effect in the tail flick assay, racemate alone (male C57BL/6 mice [3]) | metabolic stability and blood brain barrier penetrance, in words [4] | EC50 (human CB1R (hCB1R) [5]; [12]) | EC50 (human CB1R (hCB1R) [5]; [13]) | activity in the βarrestin2 recruitment assay as PAM, in words (human CB1R (hCB1R) [6]) | βarrestin2 recruitment to hCB1R, in words (human CB1R (hCB1R) [6]) | EC50 (human CB1R (hCB1R) [6]) | EC50 (hCB1R [7]) | Emax ± S.E.M., [3H]CP55,940 bound (hCB1R [7]) | Emax ± S.E.M., [35S]GTPγS binding, compound alone (hCB1R [8]) | EC50 (hCB1R [8]) | catalepsy, compound alone (male C57BL/6 mice [9]) | hypothermia, compound alone (male C57BL/6 mice [10]) | anti-nociceptive effects (tail flick), compound alone (male C57BL/6 mice [11]) | cataleptic effect, co-administered with THC (male C57BL/6 mice [9]) | hypothermic effect, co-administered with THC (male C57BL/6 mice [10]) | anti-nociceptive effect (tail flick), co-administered with THC (male C57BL/6 mice [11]) |
| --- | --- | --- | --- | --- | --- | --- | --- | --- | --- | --- | --- | --- | --- | --- | --- | --- | --- | --- | --- |
| O=[N+]([O-])CC(c1ccccc1F)c1c(-c2cccc(F)c2)[nH]c2cc(F)ccc12 (centres unmarked) [GAT591] | did not produce | did not produce | dose-dependent anti-nociceptive effect | – | – | – | – | – | – | – | – | – | – | – | – | – | – | – | – |
| O=[N+]([O-])CC(c1ccccc1F)c1c(-c2cccc(F)c2)[nH]c2c(F)cccc12 (centres unmarked) [GAT593] | did not produce | did not produce | dose-dependent anti-nociceptive effect | superior to GAT591 | – | – | – | – | – | – | – | – | – | – | – | – | – | – | – |
| O=[N+]([O-])CC(c1ccccc1F)c1c(-c2cccc(F)c2)[nH]c2cc(F)ccc12 (centres unmarked) [GAT1664] | – | – | – | – | 29 nM | 2.8 nM | no activity | did not recruit βarrestin2 | > 10000 nM | 110 nM | 140 ± 7.0 % radioligand bound | 38 ± 3.1 % stimulation above baseline | 110 nM | did not produce | did not produce | did not produce | – | – | – |
| O=[N+]([O-])C[C@@H](c1ccccc1F)c1c(-c2cccc(F)c2)[nH]c2cc(F)ccc12 [GAT1665] | – | – | – | – | 8.6 nM | 1.1 nM | – | recruited βarrestin2 as low-potency agonists and PAMs | > 10000 nM | 140 nM | 190 ± 8.5 % radioligand bound | 41 ± 4.2 % stimulation above baseline | 21 nM | did not produce | did not produce | did not produce | significant | significant | significant |
| O=[N+]([O-])CC(c1ccccc1F)c1c(-c2cccc(F)c2)[nH]c2c(F)cccc12 (centres unmarked) [GAT1666] | – | – | – | – | 270 nM | 1.3 nM | no activity | weak ability | > 10000 nM | 140 nM | 140 ± 6.1 % radioligand bound | 29 ± 2.6 % stimulation above baseline | 120 nM | did not produce | did not produce | did not produce | – | – | – |
| O=[N+]([O-])C[C@@H](c1ccccc1F)c1c(-c2cccc(F)c2)[nH]c2c(F)cccc12 [GAT1667] | – | – | – | – | 1.8 nM | 1.7 nM | – | recruited βarrestin2 as low-potency agonists and PAMs | > 10000 nM | 28 nM | 230 ± 5.4 % radioligand bound | 34 ± 2.3 % stimulation above baseline | 8 nM | did not produce | did not produce | did not produce | significant | significant | significant |
